Experimental data as given in US20070197632A1, “Aminocyclohexyl ether compounds and uses thereof” (Cardiome Pharma Corp, priority 2003, published 2007).

Tests used:
conscious rats = conditions: rat, in vivo, iv
[1] = tested on: sustained AF maintained during continuous vagal nerve stimulation; experiment: Canine vagal-AF model; format: in vivo, dog; conditions: anesthetized dogs, IV
Experimental: St.-Georges et al., 1997). Dogs are ventilated mechanically with room air supplemented with oxygen via an endotracheal tube at 20 to 25 breaths/minute with a tidal volume obtained from a nomogram. […] Catheters are inserted into the femoral artery for blood pressure recording and blood gas measurement, and into both femoral veins for drug administration and venous sampling. […] Body temperature is maintained at 37-40° C. with a heating blanket. The heart is exposed via a medial thoracotomy and a pericardial cradle is created. […] Drug effects to terminate sustained AF maintained during continuous vagal nerve stimulation are assessed. […] The vagal stimulation voltage is adjusted under control conditions, and then readjusted after each treatment to maintain the same bradycardic effect. […] Diastolic threshold and ERP are determined in duplicate and averaged to give a single value. […] The interval between the stimulus artefact and the peak of the local electrogram is measured as an index of conduction velocity. […] The stimulus voltage-heart rate relationship for vagal nerve stimulation is determined under control conditions in most experiments. […] After the termination of AF, the diastolic threshold and ERP of the atrium and ventricle are determined. […] Group data are expressed as the mean±SEM. […]

| SMILES | convulsion dose (conscious rats) [µmol/kg/min] | Median dose required for termination of AF [1] [µmol/kg] | Mean dose required for termination of AF ([1]; mean±SEM) [µmol/kg] |
| --- | --- | --- | --- |
| COc1ccc(CCO[C@H]2CCCC[C@@H]2N2CC[C@H](O)C2)cc1OC.Cl [Compound 7, (1S,2S)-2-[(3S)-Hydroxypyrrolidinyl]-1-(3,4-dimethoxyphenethoxy)-cyclohexane monohydrochloride] | 64 |  |  |
| O=C(NCC1CCCCN1)c1cc(OCC(F)(F)F)ccc1OCC(F)(F)F (stereo not drawn) [Flecainide] |  | 2.5 | 4 ± 2 |
